Test results from PubChem BioAssay AID602296 (Broad Institute, 2012).
Inconclusive results are not listed. Activity calls are given as the source filed them.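 How the source made its calls: active means fitted activation curve crossing 40% at a concentration no higher than the sample's top valid tested dose; inconclusive means flat fitted curve at 30% to 70% activation, or poor curve fit; inactive means signal decrease, flat curve within 30%, or the rest.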

System: NIH3T3-HGL HSF-1 response element luciferase, 48 h
Test: sustained heat shock response element induction – cell-based, mouse, luciferase, cherry-pick, dose, confirmation (AID 602296);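 further: test compounds applied by themselves with no MG132 co-treatment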

SMILES | AC40
O=C(N/N=C/c1ccc(-c2cccc([N+](=O)[O-])c2)o1)c1ccccc1O | > 26 µM (inactive)
O=C(O)CC12C[C@H]3C[C@@H](C1)CC(n1ncc(N4CCN(c5ccccc5)CC4)c(Cl)c1=O)(C3)C2 | > 26 µM (inactive)
CC(C)(C)c1ccc(COc2ccsc2C(=O)O)cc1 | 4.42 µM
CCCCCNC(=O)C1CCC(Cn2c(=S)[nH]c3ccccc3c2=O)CC1 (stereo unspecified) | > 26 µM (inactive)
COc1cccc(NC(=O)CSc2nc(N)cc(N)n2)c1 | > 26 µM (inactive)
CC1(C)c2cc(O)ccc2OC1N1CCOCC1 (stereo unspecified) | > 26 µM (inactive)
CCOc1ncccc1C(=O)NCCc1c[nH]c2ccccc12 | > 26 µM (inactive)
c1ccc2[nH]c3cc4ncnc4cc3nc2c1 | 5.43 µM
Cc1cccc(N2CCN(C(=O)CSCc3c(C)noc3C)CC2)c1C | 20.1 µM
COC(=O)C1(O)CC(CC(C)C)=NN1C(=O)c1ccccc1 (stereo unspecified) | 20.3 µM
Cc1cc(-c2ccc(C(C)C)c(S(=O)(=O)NCCN3CCC(C)CC3)c2)on1 | > 26 µM (inactive)
CCOc1ccc2nc(COC(=O)c3cccc([N+](=O)[O-])c3)c(C(C)=O)[n+]([O-])c2c1 | > 26 µM (inactive)
c1ccc(COc2ccccc2CNC2CCCC2)cc1 | > 26 µM (inactive)
Cn1c(=O)c(/C=C/c2ccc(F)cc2)nc2ccccc21 | 1.99 µM
NC(=O)c1cc2cc(Br)ccc2oc1=NCc1ccccc1 | > 26 µM (inactive)
O=C(COC(=O)C1CSC2(c3ccc(F)cc3)CCC(=O)N12)NC(=O)NC1CCCC1 (stereo unspecified) | > 26 µM (inactive)
CCC(C)(C)c1ccc(OC(=O)c2cccnc2Cl)cc1 | > 26 µM (inactive)
COc1cc2[nH]c(=S)n(Cc3ccco3)c(=O)c2cc1OC | > 26 µM (inactive)
Cc1cccc(C)c1NC(=O)COC(=O)c1cccc2c1C(=O)c1ccccc1C2=O | > 26 µM (inactive)
CCOc1ccc(-n2cc(C(=O)N3CCC(C)CC3)c3cc(OC)c(OC)cc3c2=O)cc1 | 25 µM
C[C@@H]1C(NC(=O)c2ccccc2)CC2CC1C2(C)C (stereo partly specified) | > 26 µM (inactive)
O=C1CCCN1CCCN=c1c([N+](=O)[O-])nn(-c2ccc(Cl)cc2)n1O | > 12 µM (inactive)

SMILES | AC40
CCOC(=O)c1c(-c2ccc(C)cc2)cn2ccccc12 | > 26 µM (inactive)
NS(=O)(=O)c1ccc(NC(=O)CN2C(=O)CCC2=O)cc1 | > 26 µM (inactive)
CCOc1cc(N2CCOCC2)c(OCC)cc1NC(=O)Cc1cccc2ccccc12 | > 26 µM (inactive)
CCOC(=O)c1c(-c2ccc(C)o2)csc1NC(=O)CSc1nncs1 | 13.6 µM
FC(F)(F)c1cccc(NC(=S)NCc2ccccn2)c1 | 7.35 µM
CCCC12CN3CC(C)(CN(C1)C3c1ccc3c(c1)OCO3)C2=O (stereo unspecified) | > 26 µM (inactive)
Cc1ccc(NC2c3ncccc3C(=O)N2C2CCCCC2)cc1 (stereo unspecified) | > 26 µM (inactive)
Cc1ccc(NC(=O)Cn2c(CCC(=O)O)ccc2-c2cccs2)cc1 | > 26 µM (inactive)
C/C(=C\C(=O)Nc1cscc1C)C(=O)O | > 26 µM (inactive)
CC1(c2ccc([N+](=O)[O-])cc2)NC(=O)N(CC(=O)c2ccc3c(c2)OCO3)C1=O (stereo unspecified) | > 26 µM (inactive)
COc1ccc(NS(=O)(=O)c2cc(NC(=O)c3cnccn3)ccc2N2CCCC2)cc1 | > 26 µM (inactive)
O=C(O)c1c(Cl)c(Cl)c(Cl)c(Cl)c1C(=O)N1CCCC1 | > 26 µM (inactive)
O=C(CCCC1=NS(=O)(=O)c2ccccc2N1)N1CCN(c2ccccc2)CC1 | > 26 µM (inactive)
Cc1ccc(S(=O)(=O)CCN2CCN(c3ccccc3)CC2)cc1 | > 26 µM (inactive)
CC1=C(Sc2nc3ccccc3[nH]2)C(=O)NC(C)(C)C1 | > 26 µM (inactive)
O=C(O)CSc1c(-c2ccccc2)[nH]c2ccccc12 | > 26 µM (inactive)
Cc1cc(/C=C(/C#N)c2cccc(Cl)c2)c(C)n1C | > 26 µM (inactive)
CC1(C)CC(=O)C(C=Nc2cccnc2)=C(O)C1 | > 26 µM (inactive)
COc1ccc(/C=C(\C#N)C(=O)Nc2cccc(C)n2)cc1 | > 26 µM (inactive)
COc1cccc(C2C(C(N)=O)=C(C)Nc3nc(-c4cccc(Cl)c4)nn32)c1 (stereo unspecified) | > 26 µM (inactive)
O=[N+]([O-])c1ccc(S(=O)(=O)N2CCSC2c2ccco2)cc1 (stereo unspecified) | > 26 µM (inactive)
Clc1ccc(-c2nc(/C=N/N3CCOCC3)c3ccccn23)cc1 | 18.3 µM

SMILES | AC40
COc1ccc(OCc2nnnn2-c2ccccc2)cc1 | 25.7 µM
CN(Cc1ccccc1)C(=O)CCC1CCN(C(=O)CC2=CCCCC2)CC1 | > 26 µM (inactive)
Cc1ccc(C(=O)NNC(=O)c2ccccc2-n2cccc2)cc1 | > 26 µM (inactive)
O=C(c1ccc[nH]c1=S)N1CCN(S(=O)(=O)c2ccc(Br)cc2Cl)CC1 | > 26 µM (inactive)
CCCSc1nnc2n(-c3ccccc3OC)c(=O)c3c4c(sc3n12)CCC4 | > 26 µM (inactive)
S=C(Nc1ccc(Cl)cc1)Nc1cccc2cnccc12 | > 26 µM (inactive)
COCCCNc1nc2nonc2nc1N1CCN(Cc2cccc(C)c2)CC1 | > 26 µM (inactive)
O=C(NC(=S)Nc1ccccc1C(F)(F)F)c1ccccc1F | 19.3 µM
NC(=O)CCN1CCN(CCOC2Cc3cc(Cl)ccc3Sc3ccccc32)CC1 (stereo unspecified) | > 26 µM (inactive)
Cc1ccc(-c2c3c(=O)n(C)c(=O)n(C)c3cn2-n2cnnc2)cc1 | 15.1 µM
COc1cccc(N=CC2=C(O)CC(C)(C)CC2=O)c1 | > 26 µM (inactive)
CSc1ccc(Cl)c(C(=O)OCC(=O)N(C)CCC#N)c1 | > 26 µM (inactive)
Cc1cc(C)n(CC(O)COc2ccc(Cl)cc2Cl)n1 (stereo unspecified) | 5.12 µM
CC(C)=NN1C(=O)c2ccccc2NC1(C)C | > 26 µM (inactive)
N#C/C(C(=O)NCc1ccccc1)=C1/N=C(NC(=O)c2ccco2)c2ccccc21 | > 26 µM (inactive)
COc1ccc(OC)c(-n2c(=O)c3ccccc3c3ccccc3c2=O)c1 | 12.4 µM
CCCc1cc(=O)[nH]c(SCC(=O)Nc2ccc(C)cc2)n1 | > 26 µM (inactive)
Cc1cc2c(cc1C)-c1nnnn1C(C)(C)C2 | > 26 µM (inactive)
CC(C)NC(=O)CN(C(=O)CCC(=O)Nc1nccs1)c1ccc2c(c1)OCO2 | > 26 µM (inactive)
CCN(CC)C(=O)c1ccc(C)c(Br)c1 | > 26 µM (inactive)
COC(=O)C(C)Sc1nc2c(c(=O)n(C)c(=O)n2C)n1CCC(C)C (stereo unspecified) | > 26 µM (inactive)
CCN1C(=O)CC(N2CCN(c3ccc(C(=O)c4ccccc4)cc3)CC2)C1=O (stereo unspecified) | 3.85 µM

SMILES | AC40
Cc1onc(-c2ccccc2)c1C(=O)N=C(N)c1ccc(C(F)(F)F)cc1 | > 26 µM (inactive)
NC(N)=NS(=O)(=O)c1ccc(NC(=S)NC(=O)c2ccc(Br)cc2)cc1 | 17.5 µM
CCc1nnc(N/N=C/c2ccccc2Cl)n1N | 21.9 µM
Cc1ccc2nc(SCC(=O)NCc3ccc(F)cc3)[nH]c2c1 | > 26 µM (inactive)
CCN(CC)S(=O)(=O)c1ccc(C(=O)NN(C)C2=NS(=O)(=O)c3ccccc32)cc1 | > 26 µM (inactive)
CC1(C)CC(=O)C2=C(C1)Nc1cc3c(cc1C2c1ccc2c(c1)OCO2)OCO3 (stereo unspecified) | 7.45 µM
CCOCCCNC(=S)Nc1ccc2nc(N3CCOCC3)cc(C)c2c1 | > 26 µM (inactive)
OCC1(CCCc2ccccc2)CCN(C2CCSCC2)CC1 | > 26 µM (inactive)
COc1cc(CC(=O)N(c2ccccc2)c2nc(C)cs2)cc(OC)c1OC | > 26 µM (inactive)
CCOC(=O)CSc1cc(-c2ccccc2)nc2ncnn12 | > 26 µM (inactive)
COC(=O)/C=C1/N/C(=N\c2nc(C)cc(C)n2)N(c2ccc(C)c(C)c2)C1=O | > 26 µM (inactive)
CCn1nc(C)cc1C(=O)Sc1ccc(Cl)cc1Cl | 14.5 µM
CN(Cc1nnc(-c2ccc(F)cc2)o1)c1ccccc1 | 9.33 µM
Cc1ccccc1CSc1nsc(N)n1 | 16.5 µM
CCN(CC)C(=O)Oc1ccc(Br)cc1C(=O)Nc1ccc(F)cc1F | > 26 µM (inactive)
c1ccc(CCc2ccncc2)cc1 | > 26 µM (inactive)
CN1C(=O)C2C(c3ccc(N(C)C)cc3)=NN(Cc3ccccc3)C2C1=O (stereo unspecified) | > 26 µM (inactive)
CC(C)n1cc(/C=N/NC(=O)COc2cccc3cccnc23)c2ccccc21 | > 26 µM (inactive)
Cc1cccc(CN(C(=S)Nc2c(C)cccc2C)c2cccnc2)c1 | 24.7 µM
O=C1C2CC=CCC2C(=O)N1Cc1nnc(-c2ccc(Cl)cc2)o1 (stereo unspecified) | 6.68 µM
Cc1cc(C)cc(OCC(O)CN2C(=O)NC(C)(C)C2=O)c1 (stereo unspecified) | > 26 µM (inactive)
O=C(NNc1cccc(Cl)n1)Nc1ccc(Cl)cc1 | > 26 µM (inactive)

SMILES | AC40
O=C(Nc1cccn2ncnc12)C(F)(F)F | > 26 µM (inactive)
Cc1ccnc(N2CCCC(C(=O)Nc3ccc(C)c(C)c3)C2)n1 (stereo unspecified) | > 26 µM (inactive)
CCOC(=O)c1nnsc1Nc1ccc(C)c(C)c1 | 5.31 µM
S=c1sc2c(Cl)ncnc2n1-c1ccccc1 | > 12 µM (inactive)
COC1(OC)C(/C=C/c2ccc(Cl)cc2)C(C#N)(C#N)C1(OC)OC (stereo unspecified) | 16.9 µM
CCOC(=O)N1CCC(NS(=O)(=O)c2ccc3c(c2)C(C)(C)C(=O)N3C)CC1 | > 26 µM (inactive)
O=C(O)CC1=C(Nc2ccccc2)C(=O)N(c2ccccc2)C1c1ccc(Cl)cc1 (stereo unspecified) | 5.67 µM
COC(=O)c1ccc(N(CC(=O)NC2CCCCC2)C(=O)CNC(=O)c2ccco2)cc1 | > 26 µM (inactive)
Cc1cc(C(=O)N2CCN(c3ccccn3)CC2)c(C)o1 | > 26 µM (inactive)
O=C(NCc1ccco1)C1CC(O)CN1C(=O)Nc1ccccc1 (stereo unspecified) | > 26 µM (inactive)
Cc1cccc(N2CCN(c3cccc(C)c3)C2c2cccnc2)c1 | > 12 µM (inactive)
Cc1ccc(CN2CCN(CC(C)C)C(CCO)C2)s1 (stereo unspecified) | 1.66 µM
CCOc1ccccc1-c1noc(CCCC(=O)NC2CCCCC2)n1 | > 26 µM (inactive)
CCC(Sc1nc2cc3c(cc2c(=O)n1Cc1ccco1)OCO3)C(=O)NCCOC (stereo unspecified) | > 26 µM (inactive)
Cc1c(/C=N/NC(=O)c2ccc(Br)o2)cnn1C | 22.4 µM
COc1cnn(-c2cc(Oc3ccc(C)cc3)ncn2)c(=O)c1Cl | > 26 µM (inactive)
Cc1ccc(N2C(=O)SC(N(CC(=O)O)c3ccc(C)cc3)C2=O)cc1 (stereo unspecified) | 9.53 µM
O=C(O)CSc1nnnn1-c1ccc2c(c1)OCCO2 | > 26 µM (inactive)
